# A melting point compilation (Tetko et al.; mined from patent text by program, amines drawn as free bases though some values may be those of a salt)
row,Structure (SMILES),melting point [°C]
1,CN1CCN(c2ccccc2C=C2CCN(c3ccc(C(F)(F)F)cc3)C2=O)CC1,186 to 189
2,Cc1c(C(=O)Nc2ccc(N3CCC(N4CCOCC4)CC3)c(C#N)c2)cnn1-c1ccccc1,223
3,COc1cc2c(cc1OC)C(c1ccc(SC(F)(F)F)cc1)CNCC2 (centres undefined),95
4,CCCCc1ncc[nH]1,35 to 37
5,Cc1ccc(O)c(I)c1,34.5 to 35.5
6,Cc1c(C#N)cc(C(C)(C)C)c(O)c1C(=O)Nc1ccc(S(=O)c2ccc(Br)cc2)cc1C(F)(F)F (centres undefined),178 to 180
7,NC(=O)N(O)CC(=O)Nc1cccc(OCc2ccccc2)c1,177 to 178
8,Cc1nc(-n2cc(CCc3ccccc3)nn2)sc1C(=O)NCc1cccnc1,114 to 116
9,O=C(CCl)NC(=O)Nc1cc(C(F)(F)F)cc(C(F)(F)F)c1,170
10,Cc1ccc(-c2nccc3c(C#N)cccc23)cc1,132
11,Brc1ccc2ccncc2c1,78 to 79
12,Cc1onc(-c2ccccc2)c1-c1nc(-c2c(F)cccc2Cl)nn1C,120 to 125
13,Cc1c(C(=O)N[C@H](C)[C@](O)(Cn2cncn2)c2ccc(F)cc2F)cnn1-c1cccc(C(F)(F)F)c1,146 to 147
14,CC(c1cc(F)ccc1O)c1cc(Cl)cc(Cl)c1O (centres undefined),150
15,CC(=O)N1C(=O)C(C(=O)c2ccco2)c2ccccc21 (centres undefined),138
16,N#Cc1cccc2c1S(=O)(=O)c1ccccc1C2=O,252 to 254
17,Cc1nc(CCN2CCOCC2)c2c(n1)N(CC#N)C(=O)C(N)O2 (centres undefined),126 to 128
18,CCN(CC)C(=O)Cc1c(C)n(Cc2ccccc2)c2ccc(OCc3nc4ccccc4s3)cc12,111 to 112
19,COc1ccc(Cn2c(=O)ccc3c(C)nc(N4CCC[C@H]4CO)nc32)cc1Cl,152 to 153
20,CN1CC(CCN2CCOCC2)Oc2ncccc2C1=S (centres undefined),152 to 153
21,CCOC(=O)C(=NOC)c1nc(N)cc(Sc2ccccc2)n1,154 to 156
22,CCOC(=O)c1cn2c(nc1=O)CCC2C (centres undefined),130
23,CC1(C)CCC(C)(C)c2cc(-c3ccc(-c4ccccc4)c(-c4ccc(C(=O)O)cc4)c3)ccc21,233 to 235
24,CCCC1=C(C(=O)OCC)C(c2csc3ccccc23)c2c[nH]nc2N1 (centres undefined),222
25,Cc1c(S(C)(=O)=O)c2cccc(Cl)c2n1CC1=NCCN1,206 to 208

row,Structure (SMILES),melting point [°C]
1,COc1ccc(Nc2ncnc3cc(Cl)ccc23)cc1,177 to 179
2,CCOC(=O)c1c(CN(CC)CC)nc2sc3c(c2c1-c1ccc(Cl)cc1)CCNC3,104 to 106
3,Cc1ccnc(Nc2nc(-c3c[nH]nc3C(=O)c3ccccc3)cs2)n1,254 to 255
4,N#CSc1nc(C(F)(F)C(F)F)nc2ccccc12,112 to 114
5,CCCCCCc1ccc2c3ccc(CO)cc3n(C)c2c1,90 to 91
6,CSc1nccc(C(C)=NO)n1,150 to 152
7,NNC(=O)c1ccc2c(c1)CCO2,148 to 149
8,CC[C@@H]1c2onc(-c3ccc(Cl)cc3)c2CC[C@H]1C(=O)O (relative stereo),162 to 163
9,c1csc(-c2nc(CCOc3ccc(CCCn4ccnc4)cc3)co2)c1,77 to 78
10,Nc1ccccc1-c1cc2[nH]c3ccccc3c2c2c1C(=O)NC2=O,> 300
11,O=C1NC(O)C2CN(Cc3ccccc3)CC12 (centres undefined),138
12,Cc1c(CO)ncnc1N1CCCC1,112 to 114
13,O=C(COc1cccc2ccccc12)NC(Cc1ccccc1)C(=O)CSCc1ccco1 (centres undefined),104 to 106
14,O=C(CN1CCN(c2ccccc2)CC1)N1CCC(C(=O)N2CCC2)(c2cccc(C(F)(F)F)c2)CC1,147 to 149
15,C#CCc1c(C)nc2c(NCc3ccccc3Cl)cccn12,115 to 116
16,Cc1ccc(C2CC(C(N)=O)=NN2c2ccc(S(N)(=O)=O)cc2)cc1 (centres undefined),210 to 215
17,O=C(c1ccc(O)cc1)c1ccc(O)c(Cl)c1Cl,208 to 210
18,Cc1ccc(-c2cncnc2N)cc1,166 to 167
19,Cc1ccc(S(=O)(=O)NC(=O)C2C(=O)CC(C)(C)CC2=O)cc1,94 to 108
20,O=C(O)CCC(=O)c1ccc2[nH]c3ncc(Cl)cc3c2c1,243
21,CCOC(=O)c1ccc(Nc2ccc([N+](=O)[O-])cc2[N+](=O)[O-])cc1,99 to 102
22,COc1nc(NC(=O)NS(=O)(=O)c2ccccc2OCC#N)nn1C,205 to 207
23,COc1ccc2cc(Cc3ccccc3)sc2c1,60 to 61
24,O=C(NC(=O)c1ccc2ncccc2c1)NC1CCN(Cc2ccc3ccccc3c2)CC1,211 to 213
25,COCCCCC(=O)c1cc(C(=O)O)c2cc(Cc3ccc(F)cc3)cnc2c1O,216 to 218

row,Structure (SMILES),melting point [°C]
1,COc1ccc(Cn2nnnc2C(=O)Nc2cc(C(F)(F)F)cc(NC(=O)c3nnnn3Cc3ccc(OC)cc3)c2Cl)cc1,185 to 186
2,CCCc1nn(-c2ccc(C(F)(F)F)cn2)cc1CCCOc1nn(C)cc1CC(=O)O,119 to 120
3,O=C(NC(=S)Nc1ccc(F)cc1)c1ccccc1,82
4,CC(C)OC(=O)C1CCCN1S(=O)(=O)c1ccc(N2CCC(NCC(O)c3ccc(O)c(NS(C)(=O)=O)c3)CC2)cc1 (centres undefined),52 to 58
5,O=C1C(=Cc2ccccc2)CCc2cc(OCCc3c[nH]cn3)ccc21,53 to 56
6,ON=Cc1cc(Cl)ccc1O,125 to 126
7,CN(C)Cc1cnc2cc(NC(=O)c3ccc(-c4ccc(Cl)cc4)cc3)ccc2c1,236 to 238
8,CC(C)Cn1c(=O)[nH]c2ncc(-c3ccc(O)cc3)nc21,290 to 291
9,Cc1c(C(=O)c2cccc(Cl)c2Cl)c2cccc(Br)c2n1CCCCl,139
10,Cc1cc(C2=CCC(c3ccc(OCC4CO4)cc3)CC2)ccc1OCC1CO1 (centres undefined),117
11,O=C(NC1CCN(CCNC(=O)c2n[nH]c3ccccc23)CC1)OCc1ccccc1,184 to 187
12,N#CCCC1CN(C(=O)OCc2ccccc2)CCO1 (centres undefined),59 to 60
13,Cc1cc(F)c(-n2cnc3ccccc3c2=O)cc1SCC(F)(F)F,145 to 147
14,O=C(Nc1cccc2[nH]ccc12)c1ccc(Cl)cc1OCC1CO1 (centres undefined),194
15,COc1cc(Nc2nccc(-c3ccc(N4CCCC(CO)C4)nc3)n2)cc(OC)c1OC (centres undefined),183 to 184
16,O=C(O)CO[C@@H]1CCCC[C@H]1NC(=O)Nc1ccccc1 (relative stereo),166 to 168
17,Clc1ccc2c(ccn2C2=CCN(CCC3Cc4ccccc4C3)CC2)c1,93 to 94
18,COc1cc(C(O)C#N)ccc1O (centres undefined),80 to 81
19,CCCCCCCCCN1C(=O)N(c2ccc([N+](=O)[O-])c(C(F)(F)F)c2)C(=O)C1(C)C,63
20,CN1C(=O)N(c2cc(Cl)cc(Cl)c2)C(=O)[C@]12CN(Cc1ccccc1)C[C@H]2c1ccc(C#N)cc1 (relative stereo),164
21,CCc1c(C(=O)OC(C)C)ncc2[nH]c3ccc4sc(NC(C)=O)nc4c3c12,208 to 210
22,CCOC(=O)CNC(=O)[C@H](CC(C)C)NC(=O)[C@@H]1CCCN1C(=O)OCc1ccccc1,149 to 150
23,O=c1oc2c(c(O)c1C(c1ccccc1)C1CC1)CCCCC2CC1CCCOC1 (centres undefined),82 to 90
24,CCOC(=O)C1=C(COCCO)NC(C)=C(C(=O)OC)C1c1cccc(Cl)c1Cl (centres undefined),120 to 121
25,CCOC(=O)c1cnc2nn(C)cc2c1O,222 to 224

row,Structure (SMILES),melting point [°C]
1,O=C(O)c1cn(C2CC2)c2cc(N3CCNC(c4ccoc4)C3)c(F)cc2c1=O (centres undefined),202 to 204
2,C=CCc1cc(COC(=O)C(C)(C)C)ccc1C#CC1(O)CN2CCC1CC2 (centres undefined),73
3,C[C@@H]1CN(c2ccc(C(F)(F)F)cn2)C[C@H](C)N1CC(=O)N1CC=C(c2ccc3ccccc3n2)CC1,94 to 95
4,CN(C)S(=O)(=O)c1ccc(-c2ccc(-c3ccc(S(=O)(=O)N(C)C)c(S)c3)cc2)cc1S,194
5,Cc1cc(C)cc(-c2cc(O)c(Sc3ccccc3CC3CC3)c(=O)o2)c1,168
6,CCc1nnc2c(Nc3ccc(Cl)cc3OC)nc3ccccc3n12,245 to 248
7,COc1ccc(-c2ccc(C(=O)Nc3ccc4nc(CN5C(C)(C)CCCC5(C)C)ccc4c3)cc2)cc1,210 to 211
8,CC(C)(NC(=O)c1cc2c(n(CC3CCCCC3)c1=O)CCCCCC2)C(=O)N(N)S(C)(=O)=O,177 to 178
9,CC(Cc1ccc(C(=O)C(C)(C)O)cc1)C(=O)O (centres undefined),57
10,O=[N+]([O-])c1cc(C(F)(F)F)cc([N+](=O)[O-])c1P(=O)(c1ccccc1)c1ccccc1,214 to 215
11,CCON=C(c1ccccc1SCc1ccc(Cl)cc1)n1ccnc1,96.5 to 97.5
12,CCNc1nc(Cl)nc2nc[nH]c12,237 to 239
13,O=C(NCCOc1ccc(CC(Oc2ccc(F)c(F)c2)C(=O)O)cc1)c1ccc(-c2ccccn2)cc1 (centres undefined),135 to 136
14,O=[N+]([O-])c1ccc2oc(CCC(F)(F)F)cc2c1,70 to 71
15,CC1Cc2c(N3CCCC3CO)c(F)cc3c(=O)c(C(=O)O)cn1c23 (centres undefined),235 to 237
16,COc1cc2c(Nc3ccc(Cl)cc3F)ncnc2cc1OCCN1CCS(=O)(=O)CC1,246 to 249
17,COc1ccc(S(=O)(=O)N(c2ccc(Cl)cc2Cc2c(F)cccc2F)C(C)CO)cc1OC (centres undefined),169
18,Cc1c(Sc2ccc(Cl)cc2)nn(-c2ccc(Cl)cc2)c(=O)c1C#N,177 to 179
19,O=C(O)Cc1cc(Cc2nc3c(F)c(F)cc(F)c3s2)cc(C(=O)O)c1,203 to 205
20,COc1ccc(COc2cccc3c2CN(C2CCC(=O)NC2=O)C3=O)cc1OC (centres undefined),205 to 207
21,COc1nc(OC)nc(OC(=O)c2cccc3cc(O)ccc23)n1,166 to 168
22,Cc1ccc(-c2ccc(S(C)(=O)=O)cc2)n1-c1ccc(-c2ccco2)cc1,145 to 147
23,CCC(=O)c1ccnc(OC)c1,38
24,CNC(=O)Nc1cc(C2(C)CC2)on1,144 to 147
